Results published in ChEMBL document CHEMBL4304800, “C4-Phenylthio β-lactams: Effect of the chirality of the β-lactam ring on antimicrobial activity” (2019).

How the values were obtained:
Type in all cases: functional
Details in all cases: 336 h
[1] = tested on: Mycobacterium tuberculosis; test: Antitubercular activity against multi-drug resistant Mycobacterium tuberculosis K26b00MR after 14 days in presence of middlebrook 7H9/BSA medium by eleven fold serial dilution method
[2] = tested on: Mycobacterium tuberculosis; test: Antitubercular activity against multi-drug resistant Mycobacterium tuberculosis K29b00MR after 14 days in presence of middlebrook 7H9/BSA medium by eleven fold serial dilution method
[3] = tested on: Mycobacterium tuberculosis; test: Antitubercular activity against multi-drug resistant Mycobacterium tuberculosis K22b00MR after 14 days in presence of middlebrook 7H9/BSA medium by eleven fold serial dilution method
[4] = tested on: Mycobacterium tuberculosis; test: Antitubercular activity against multi-drug resistant Mycobacterium tuberculosis K25b00MR after 14 days in presence of middlebrook 7H9/BSA medium by eleven fold serial dilution method

## C[C@@H](NC(=O)N1C(=O)C[C@@H]1Sc1ccc(F)cc1F)c1ccccc1
[1]
  MIC: 25 µg/mL
[2]
  MIC: 12.5 µg/mL
[3]
  MIC: 12.5 µg/mL
[4]
  MIC: 12.5 µg/mL

## C[C@H](NC(=O)N1C(=O)C[C@H]1Sc1ccc(F)cc1F)c1ccccc1
[1]
  MIC: 25 to 50 µg/mL
[2]
  MIC: 25 µg/mL
[3]
  MIC: 25 µg/mL
[4]
  MIC: 12.5 to 25 µg/mL

## C[C@H](NC(=O)N1C(=O)C[C@@H]1Sc1ccc(C(F)(F)F)cc1)c1ccccc1
[1]
  MIC: 12.5 µg/mL
[2]
  MIC: 12.5 µg/mL
[3]
  MIC: 12.5 µg/mL
[4]
  MIC: 12.5 to 25 µg/mL

## C[C@@H](NC(=O)N1C(=O)C[C@H]1Sc1ccc(F)cc1F)c1ccccc1
[1]
  MIC: 12.5 to 25 µg/mL
[2]
  MIC: 12.5 µg/mL
[3]
  MIC: 12.5 µg/mL
[4]
  MIC: 12.5 µg/mL

## O=C1CC(Sc2ccc(C(F)(F)F)cc2)N1C(=O)NCc1ccccc1 (racemic)
[1]
  MIC: 12.5 µg/mL
[2]
  MIC: 25 µg/mL
[3]
  MIC: 12.5 µg/mL
[4]
  MIC: 25 µg/mL

## NNC(=O)c1ccncc1 [ISONIAZID]
[1]
  MIC: > 1 µg/mL
[2]
  MIC: ≥ 1 µg/mL
[3]
  MIC: 0.6 µg/mL
[4]
  MIC: 1.3 µg/mL
